Assay results taken from patent US9657015B2, “Substituted bicyclic dihydropyrimidinones and their use as inhibitors of neutrophil elastase activity” (Boehringer Ingelheim International GmbH, priority 2014, dated 2017).
In brackets after ≈: the same amount, converted by molar mass.

Experiments:
[1] = biological target: Human neutrophil elastase (Homo sapiens (Human), UniProt P08246); assay: Human Neutrophil Elastase Assay; type: biochemical; details: substrate MeOSuc-Ala-Ala-Pro-Val-AMC 250 μM, pH 7.5, room temperature
Human neutrophil elastase, sequence (P08246 30-247): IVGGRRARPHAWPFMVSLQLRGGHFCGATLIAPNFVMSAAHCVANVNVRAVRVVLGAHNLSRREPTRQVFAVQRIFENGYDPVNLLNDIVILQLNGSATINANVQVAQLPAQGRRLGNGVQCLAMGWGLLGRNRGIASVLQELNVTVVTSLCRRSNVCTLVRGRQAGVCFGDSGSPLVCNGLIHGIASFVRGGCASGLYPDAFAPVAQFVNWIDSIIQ

[2] = biological target: neutrophil elastase in human plasma (Homo sapiens (Human), UniProt P08246); assay: Neutrophil elastase inhibitory activity in human plasma; type: biochemical; details: human plasma assay (zymosan-stimulated blood plasma), substrate 250 μM, pH 7.5
neutrophil elastase in human plasma, sequence (P08246 30-247): as above

[3] = Metabolic stability with human liver microsomes; type: in vitro ADME; details: pH 7.6; pooled human liver microsomes, 37° C., 1 μM test compound, 1 mg/ml microsomal protein, NADPH; read-out: t1/2 INVITRO
[4] = Metabolic stability with human hepatocytes; type: in vitro ADME; details: human hepatocyte suspension (typically cryopreserved), 1 μM test compound, six hours, scaled with well stirred model
Method: Assay for the Determination of Metabolic Stability with Human Hepatocytes
The metabolic degradation of the test compound is assayed in a human hepatocyte suspension. Human hepatocytes (typically cryopreserved) are incubated in an appropriate buffer system (e.g. Dulbecco's modified eagle medium plus 3.5 μg glucagon/500 mL, 2.5 mg insulin/500 mL and 3.75 mg/500 mL hydrocortison) containing 5% species serum. Following a (typically) 30 min preincubation in an incubator (37° C., 10% CO2), 5 μl of test compound solution (80 μM; from 2 mM stock solution in DMSO diluted 1:25 with medium) are added into 395 μl hepatocyte suspension (cell density in the range 0.25-5*10^6 cells/mL, typically 1*10^6 cells/mL; final concentration of test compound 1 μM, final DMSO concentration 0.05%). The cells are incubated for six hours (incubator, orbital shaker) and samples (25 μl) are taken at 0, 0.5, 1, 2, 4 and 6 hours. Samples are transferred into acetonitrile and pelleted by centrifugation (5 min) The supernatant is transferred to a new 96-deepwell plate, evaporated under nitrogen and resuspended. The decline of parent compound is analyzed by LC-MS/MS.
The intrinsic clearance CL_[…] is calculated as follows: CL_[…]=Dose/AUC=(C0/CD)/(AUD+clast/k)*1′000/60 (C0: initial concentration in the incubation [μM], CD: cell density of vital cells [10^6 cells/mL], AUD: area under the data [μM*h], clast: concentration of last data point [μM], k: slope of the regression line for parent decline [h^−1])
The calculated in vitro hepatic intrinsic clearance can be scaled up to the intrinsic in vivo hepatic clearance and used to predict hepatic in vivo blood clearance (CL) by the use of a liver model (well stirred model): CL_[…]_INVIVO [ml/min/kg]=(CL_[…] [μL/min/10^6 cells]*hepatocellularity [10^6 cells/g liver]*liver factor [g/kg bodyweight])/1′000 CL [ml/min/kg]=CL_[…]_INVIVO [ml/min/kg]*hepatic blood flow [ml/min/kg]/(CL_[…]_INVIVO [ml/min/kg]+hepatic blood flow [ml/min/kg]) Qh [%]=CL [ml/min/kg]/hepatic blood flow [ml/min/kg]) (Hepatocellularity, human: 120*10^6 cells/g liver; liver factor, human: 25.7 g/kg bodyweight; blood flow, human: 21 ml/(min*kg))

[5] = Drug transport across human Caco-2 cells; type: in vitro ADME; details: human, Caco-2 monolayers, pH 7.2, 37° C.
Text: Assay for Determination of Drug Transport Across Human Caco-2 Cells
The assay provides information on the potential of a compound to pass the cell membrane, on the extent of oral absorption as well as on whether the compound is actively transported by uptake and/or efflux transporters. For the measurement of permeability across polarized, confluent human cancer colon carcinoma cells 2 (Caco-2) cell monolayers grown on permeable filter supports are used as the in vitro absorption model.
Apparent permeability coefficients (PE) of the compounds across the Caco-2 monolayers are measured (pH 7.2, 37° C.) in apical-to-basal (AB) (absorptive) and basal-to-apical (BA) (secretory) transport direction. AB permeability (PEAB) represents drug absorption from the intestine into the blood and BA permeability (PEBA) drug secretion from the blood back into the intestine via both passive permeability as well as active transport mechanisms mediated by efflux and uptake transporters that are expressed on the Caco-2 cells. The compounds are assigned to permeability/absorption classes by comparison of the AB permeabilities with the AB permeabilities of reference compounds with known in vitro permeability and oral absorption in the human. Identical or similar permeabilities in both transport directions indicate passive permeation, vectorial permeability points to additional active transport mechanisms. […] Active transport is concentration-dependently saturable.
Caco-2 cells (1-2*10^5 cells/cm^2 area) are seeded on filter inserts (Costar transwell polycarbonate or PET filters, 0.4 μm pore size) and cultured (DMEM) for 10 to 25 days. Compounds are dissolved in appropriate solvent (like DMSO, 1-20 mM stock solutions). Stock solutions are diluted with HTP-4 buffer (128.13 mM NaCl, 5.36 mM KCl, 1 mM MgSO4, 1.8 mM CaCl2, 4.17 mM NaHCO3, 1.19 mM Na2HPO4×7H2O, 0.41 mM NaH2PO4×H2O, 15 mM HEPES, 20 mM glucose, pH 7.2) to prepare the transport solutions (typically 10 μM compound, final DMSO<=0.5%). The transport solution (TL) is applied to the apical or basolateral donor side for measuring A-B or B-A permeability (3 filter replicates), respectively. The receiver side contains HTP-4 buffer supplemented with 2% BSA. Samples are collected at the start and end of experiment from the donor and at various time intervals for up to 2 hours also from the receiver side for concentration measurement by LC-MS/MS or scintillation counting. Sampled receiver volumes are replaced with fresh receiver solution.
The apparent permeability coefficients (PEAB and PEBA) of selected compounds in the Caco-2 drug transport assay described above are listed in Table 9.

[6] = Aqueous solubility (High Throughput Method); type: physicochemical; details: McIlvaine buffer pH 6.8 with 2.5% DMSO, aqueous buffer, kinetic from dmso stock; McIlvaine buffer pH 6.8, 2.5% DMSO, 24 h shaking
Method: Assay for Determination of Aqueous Solubility (“High Throughput Method”)
Starting from a 10 mM DMSO stock solution, aliquots are diluted with acetonitrile/water (1/1) and McIlvaine buffer pH 6.8, respectively. After 24 h of shaking, the solutions or suspensions are filtered and analyzed by LC-UV. The amount dissolved in buffer is compared to the amount dissolved in the acetonitrile/water (1/1) solution. Solubility is measured from 0.001 to 0.125 mg/ml at a DMSO concentration of 2.5%. If more than 90% of the compound is dissolved in buffer, the value is marked with “>”.

[7] = Aqueous solubility (Shaked Flask Method); type: physicochemical; details: aqueous buffer, thermodynamic from solid, pH 6.8 (McIlvaine buffer)
Method: Assay for Determination of Aqueous Solubility (“Shaked Flask Method”)
Saturated solutions are prepared in well plates by adding an appropriate volume of selected aqueous media (typically in the range of 0.25-1.5 ml) into each well which contains a known quantity of solid drug substance (typically in the range 0.5-5.0 mg). The wells are shaken or stirred for a predefined time period (typically in a range of 2-24 h) and then filtered using appropriate filter membranes (typically PTFE-filters with 0.45 μm pore size). Filter absorption is avoided by discarding the first few drops of filtrate. The amount of dissolved drug substance is determined by UV spectroscopy or by HPLC with UV-detection. In addition, the pH of the aqueous saturated solution is measured using a glass-electrode pH meter.

cytochrome P450 2C9 = cytochrome P450 2C9 (Homo sapiens (Human), UniProt P11712); assay: Cytochrome P450 2C9 inhibition; type: in vitro ADME; details: human liver microsomes, Diclofenac hydroxylation, 37° C.
cytochrome P450 2C9, sequence (P11712 whole entry): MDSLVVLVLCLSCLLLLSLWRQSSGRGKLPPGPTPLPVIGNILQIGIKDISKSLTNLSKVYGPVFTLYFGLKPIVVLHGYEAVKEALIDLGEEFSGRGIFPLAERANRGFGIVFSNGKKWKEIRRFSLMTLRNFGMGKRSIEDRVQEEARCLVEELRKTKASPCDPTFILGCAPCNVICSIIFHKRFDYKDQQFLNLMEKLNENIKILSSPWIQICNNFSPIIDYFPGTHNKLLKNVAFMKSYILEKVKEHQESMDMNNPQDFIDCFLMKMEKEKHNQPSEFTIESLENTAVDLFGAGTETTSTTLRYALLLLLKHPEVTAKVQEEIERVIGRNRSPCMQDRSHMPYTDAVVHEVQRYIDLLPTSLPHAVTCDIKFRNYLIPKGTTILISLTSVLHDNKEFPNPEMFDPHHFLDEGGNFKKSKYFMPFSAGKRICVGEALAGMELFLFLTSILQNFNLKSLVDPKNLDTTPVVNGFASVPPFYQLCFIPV
Text: Assay for Determination of Cytochrome P450 2C9 Inhibition

cytochrome P450 2C19 = cytochrome P450 2C19 (Homo sapiens (Human), UniProt P33261); assay: Cytochrome P450 2C19 inhibition; type: in vitro ADME; details: human liver microsomes, (S)-Mephenytoin hydroxylation, 37° C.
cytochrome P450 2C19, sequence (P33261 whole entry): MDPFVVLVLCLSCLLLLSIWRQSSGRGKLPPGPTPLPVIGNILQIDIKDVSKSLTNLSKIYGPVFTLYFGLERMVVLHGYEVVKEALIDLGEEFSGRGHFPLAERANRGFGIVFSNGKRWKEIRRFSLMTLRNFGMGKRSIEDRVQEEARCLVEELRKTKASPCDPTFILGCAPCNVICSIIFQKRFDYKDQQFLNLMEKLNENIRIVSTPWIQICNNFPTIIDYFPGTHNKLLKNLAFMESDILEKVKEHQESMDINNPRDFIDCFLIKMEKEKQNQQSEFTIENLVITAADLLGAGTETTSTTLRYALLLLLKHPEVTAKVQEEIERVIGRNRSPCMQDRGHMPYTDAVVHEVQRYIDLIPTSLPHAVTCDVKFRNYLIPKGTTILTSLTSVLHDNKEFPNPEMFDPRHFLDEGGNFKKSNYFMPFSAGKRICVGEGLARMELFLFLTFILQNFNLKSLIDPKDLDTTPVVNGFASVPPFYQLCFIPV
Text: Assay for Determination of Cytochrome P450 2C19 Inhibition

cytochrome P450 2C8 = cytochrome P450 2C8 (Homo sapiens (Human), UniProt P10632); assay: Cytochrome P450 2C8 inhibition; type: in vitro ADME; details: human liver microsomes, Amodiaquine deethylation, 37° C.
cytochrome P450 2C8, sequence (P10632 whole entry): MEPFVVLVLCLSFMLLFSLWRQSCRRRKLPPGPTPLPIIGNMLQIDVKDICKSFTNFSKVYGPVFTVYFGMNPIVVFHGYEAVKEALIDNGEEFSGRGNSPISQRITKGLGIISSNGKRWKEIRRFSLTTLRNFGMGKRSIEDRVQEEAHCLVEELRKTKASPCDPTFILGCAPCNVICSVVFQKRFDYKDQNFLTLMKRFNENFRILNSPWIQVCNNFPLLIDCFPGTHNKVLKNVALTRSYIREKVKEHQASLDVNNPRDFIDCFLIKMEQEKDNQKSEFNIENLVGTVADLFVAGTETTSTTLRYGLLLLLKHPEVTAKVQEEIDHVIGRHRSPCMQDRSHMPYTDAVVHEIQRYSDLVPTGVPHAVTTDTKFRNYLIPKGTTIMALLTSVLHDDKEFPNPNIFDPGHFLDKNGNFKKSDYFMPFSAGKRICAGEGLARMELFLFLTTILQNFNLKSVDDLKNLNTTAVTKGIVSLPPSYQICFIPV
Text: Assay for Determination of Cytochrome P450 2C8 Inhibition

IC50 [1]: < 0.001 µM | IC50 [2]: < 0.001 µM | half-life at 1 μM [3]: > 2.17 h | CLhep predicted at 1 μM [4]: 3 mL/min/kg | Papp A→B at 10 µM ([5]; apical-to-basal, read-out: PEAB): 12 ×10⁻⁶ cm/s | Papp B→A at 10 µM ([5]; basal-to-apical, read-out: PEBA): 100 ×10⁻⁶ cm/s | solubility at 24 h [6]: 11 µg/mL (≈ 21.7 µM) | solubility [7]: ≥ 10 µg/mL | IC50 (cytochrome P450 2C9): > 50 µM | IC50 (cytochrome P450 2C19): > 50 µM | IC50 (cytochrome P450 2C8): > 50 µM
SMILES: CN1C(=O)N(c2cccc(C(F)(F)F)c2)C2=C(C(=O)NCC2)[C@H]1c1ccc(C#N)cc1-c1cnn(C)c1 [Example 31A, 3-(1-Methyl-1H-pyrazol-4-yl)-4-[(4R)-3-methyl-2,5-dioxo-1-[3-(trifluoromethyl)-phenyl]-1H,2H,3H,4H,5H,6H,7H,8H-pyrido[4,3-d]pyrimidin-4-yl]benzonitrile]
